Assay results: ChEMBL document CHEMBL1147975, “Synthesis, structure, and structure-activity relationship analysis of enamines as potential antibacterials” (2007)
Converted amounts (≈) assume the structure as drawn.

Columns and labels:
Type in all cases: functional
Bacillus subtilis = assay: Antibacterial activity against Bacillus subtilis ATCC 6633 after 24 hrs by MTT method; settings: ATCC 6633, 24 h
Escherichia coli = assay: Antibacterial activity against Escherichia coli ATCC 35218 after 24 hrs by MTT method; settings: ATCC 35218, 24 h
Pseudomonas fluorescens = assay: Antibacterial activity against Pseudomonas fluorescens ATCC 13525 after 24 hrs by MTT method; settings: ATCC 13525, 24 h
Staphylococcus aureus = assay: Antibacterial activity against Staphylococcus aureus ATCC 6538 after 24 hrs by MTT method; settings: ATCC 6538, 24 h
Aspergillus niger = assay: Antifungal activity against Aspergillus niger ATCC 16404 after 48 hrs by MTT method; settings: ATCC 16404, 48 h
Candida albicans = assay: Antifungal activity against Candida albicans ATCC 10231 after 48 hrs by MTT method; settings: ATCC 10231, 48 h
Trichophyton rubrum = assay: Antifungal activity against Trichophyton rubrum ATCC 10218 after 48 hrs by MTT method; settings: ATCC 10218, 48 h

SMILES	MIC (Bacillus subtilis)	MIC (Escherichia coli)	MIC (Pseudomonas fluorescens)	MIC (Staphylococcus aureus)	MIC (Aspergillus niger)	MIC (Candida albicans)	MIC (Trichophyton rubrum)
NC[C@H]1O[C@H](O[C@H]2[C@H](O)[C@@H](O[C@H]3O[C@H](CO)[C@@H](O)[C@H](N)[C@H]3O)[C@H](N)C[C@@H]2N)[C@H](O)[C@@H](O)[C@@H]1O [KANAMYCIN]	0.39 µg/mL (≈ 0.805 µM)	3.9 µg/mL (≈ 8.05 µM)	3.9 µg/mL (≈ 8.05 µM)	1 µg/mL (≈ 2.06 µM)	–	–	–
CCOC(=O)/C(=C\Nc1cc(Br)c(OC)c(Br)c1)c1ccc(OC)cc1	> 50 µg/mL	> 50 µg/mL	> 50 µg/mL	> 50 µg/mL	> 50 µg/mL	> 50 µg/mL	> 50 µg/mL
CCOC(=O)/C(=C/Nc1cc(Cl)cc(Cl)c1)c1ccc(Cl)cc1	> 50 µg/mL	> 50 µg/mL	25.7 µg/mL (≈ 69.3 µM)	1.1 µg/mL (≈ 2.97 µM)	> 50 µg/mL	> 50 µg/mL	–
CCOC(=O)/C(=C\Nc1ccc(Br)cc1)c1ccc(OC)cc1	> 50 µg/mL	> 50 µg/mL	> 50 µg/mL	> 50 µg/mL	> 50 µg/mL	> 50 µg/mL	–
CCOC(=O)/C(=C/Nc1ccc(O)cc1)c1ccc(OC)cc1	> 50 µg/mL	> 50 µg/mL	> 50 µg/mL	3.8 µg/mL (≈ 12.1 µM)	> 50 µg/mL	> 50 µg/mL	–
CCOC(=O)/C(=C\Nc1cc(OC)cc(OC)c1)c1ccc(OC)cc1	> 50 µg/mL	> 50 µg/mL	30 µg/mL (≈ 83.9 µM)	43.5 µg/mL (≈ 122 µM)	> 50 µg/mL	> 50 µg/mL	–
CCOC(=O)/C(=C\Nc1ccc(O)cc1)c1ccc(OC)cc1	> 50 µg/mL	> 50 µg/mL	> 50 µg/mL	7.9 µg/mL (≈ 25.2 µM)	> 50 µg/mL	> 50 µg/mL	–
CCOC(=O)/C(=C\Nc1ccc(C)cc1)c1ccc(Cl)cc1	> 50 µg/mL	> 50 µg/mL	> 50 µg/mL	> 50 µg/mL	> 50 µg/mL	> 50 µg/mL	–
CCOC(=O)/C(=C/Nc1ccc(C)cc1)c1ccc(Cl)cc1	> 50 µg/mL	> 50 µg/mL	> 50 µg/mL	0.9 µg/mL (≈ 2.85 µM)	–	> 50 µg/mL	–
CCOC(=O)/C(=C\Nc1cc(Cl)cc(Cl)c1)c1ccc(OC)cc1	> 50 µg/mL	> 50 µg/mL	33.8 µg/mL (≈ 92.3 µM)	> 50 µg/mL	> 50 µg/mL	> 50 µg/mL	–
CCOC(=O)/C(=C\Nc1cc(F)cc(F)c1)c1ccc(OC)cc1	> 50 µg/mL	> 50 µg/mL	> 50 µg/mL	> 50 µg/mL	> 50 µg/mL	> 50 µg/mL	–
CCOC(=O)/C(=C/Nc1cc(Br)c(OC)c(Br)c1)c1ccc(OC)cc1	> 50 µg/mL	> 50 µg/mL	33 µg/mL (≈ 68 µM)	> 50 µg/mL	> 50 µg/mL	> 50 µg/mL	–
CCOC(=O)/C(=C/Nc1ccc(Br)cc1)c1ccc(OC)cc1	> 50 µg/mL	> 50 µg/mL	31.7 µg/mL (≈ 84.3 µM)	> 50 µg/mL	> 50 µg/mL	> 50 µg/mL	–
CCOC(=O)/C(=C\Nc1cc(Cl)cc(Cl)c1)c1ccc(Cl)cc1	> 50 µg/mL	> 50 µg/mL	> 50 µg/mL	> 50 µg/mL	> 50 µg/mL	> 50 µg/mL	–
CCOC(=O)/C(=C\Nc1cc(F)cc(F)c1)c1ccc(Cl)cc1	> 50 µg/mL	> 50 µg/mL	> 50 µg/mL	> 50 µg/mL	> 50 µg/mL	> 50 µg/mL	–
CCOC(=O)/C(=C\Nc1ccc(Br)cc1)c1ccc(Cl)cc1	> 50 µg/mL	> 50 µg/mL	> 50 µg/mL	> 50 µg/mL	> 50 µg/mL	> 50 µg/mL	–

Second part, the compound after the results:

MIC (Bacillus subtilis)	MIC (Escherichia coli)	MIC (Pseudomonas fluorescens)	MIC (Staphylococcus aureus)	MIC (Aspergillus niger)	MIC (Candida albicans)	MIC (Trichophyton rubrum)	SMILES
> 50 µg/mL	> 50 µg/mL	31.5 µg/mL (≈ 94.5 µM)	22.8 µg/mL (≈ 68.4 µM)	> 50 µg/mL	> 50 µg/mL	–	CCOC(=O)/C(=C/Nc1cc(F)cc(F)c1)c1ccc(OC)cc1
> 50 µg/mL	42.5 µg/mL (≈ 126 µM)	> 50 µg/mL	> 50 µg/mL	> 50 µg/mL	> 50 µg/mL	–	CCOC(=O)/C(=C\Nc1ccccc1Cl)c1ccc(Cl)cc1
> 50 µg/mL	> 50 µg/mL	> 50 µg/mL	> 50 µg/mL	> 50 µg/mL	> 50 µg/mL	–	CCOC(=O)/C(=C/Nc1ccc(Br)cc1)c1ccc(Cl)cc1
> 50 µg/mL	41.5 µg/mL (≈ 116 µM)	25.2 µg/mL (≈ 70.5 µM)	15.8 µg/mL (≈ 44.2 µM)	> 50 µg/mL	> 50 µg/mL	–	CCOC(=O)/C(=C/Nc1cc(OC)cc(OC)c1)c1ccc(OC)cc1
48.2 µg/mL (≈ 143 µM)	> 13.5 µg/mL	31.5 µg/mL (≈ 93.3 µM)	1.9 µg/mL (≈ 5.63 µM)	> 50 µg/mL	> 50 µg/mL	–	CCOC(=O)/C(=C/Nc1cc(F)cc(F)c1)c1ccc(Cl)cc1
> 50 µg/mL	> 50 µg/mL	32.2 µg/mL (≈ 95.8 µM)	> 50 µg/mL	> 50 µg/mL	> 50 µg/mL	–	CCOC(=O)/C(=C\Nc1ccc(Cl)cc1)c1ccc(Cl)cc1
42.2 µg/mL (≈ 115 µM)	42.2 µg/mL (≈ 115 µM)	27.8 µg/mL (≈ 75.9 µM)	20.2 µg/mL (≈ 55.2 µM)	> 50 µg/mL	> 50 µg/mL	–	CCOC(=O)/C(=C/Nc1cc(Cl)cc(Cl)c1)c1ccc(OC)cc1
42 µg/mL (≈ 125 µM)	42.5 µg/mL (≈ 126 µM)	29.5 µg/mL (≈ 87.7 µM)	> 50 µg/mL	> 50 µg/mL	> 50 µg/mL	–	CCOC(=O)/C(=C/Nc1ccc(Cl)cc1)c1ccc(Cl)cc1
43.8 µg/mL (≈ 130 µM)	38.8 µg/mL (≈ 115 µM)	35.3 µg/mL (≈ 105 µM)	> 50 µg/mL	> 50 µg/mL	> 50 µg/mL	–	CCOC(=O)/C(=C/Nc1ccccc1Cl)c1ccc(Cl)cc1
